Source: US9320718B2, “Multilayer coating form of orally administered pharmaceutical composition containing omega-3 fatty acid or alkyl ester thereof and statin based drug” (KUHNIL PHARM. CO., LTD., priority 2012, dated 2016)

Assays:
Type in all cases: physicochemical
[1] = Compatibility of atorvastatin and coating material: related compounds on storage under severe conditions (HPLC); details: atorvastatin 0.5 mg with coating material 2.5 mg, vacuum-dried, stored at about 60° C., relative humidity about 85%
Method: (§1) To form an atorvastatin-containing drug-coating layer, compatibility of atorvastatin with various coating materials (coating agents and surfactants) were evaluated. About 2.5 mg of each coating material as shown in Table 2 was dissolved in 5 mL of a 75% aqueous ethanol solution, and about 0.5 mg of atorvastatin was added thereto and then completely dissolved. About 0.5 mg of atorvastatin was completely dissolved in 5 mL of a 75% aqueous ethanol solution as a control group for the compatibility evaluation. Each of the resulting solutions was vacuum-dried at about 50° C. for about 24 hours to completely remove the solvent, thereby preparing test samples. While each test temple was stored under severe conditions (at a temperature of about 60° C. and a relative humidity of about 85%), a degree of generation of related compounds with time was observed. The related compounds were analyzed by HPLC in the following manner.
<Atorvastatin Analysis Method>
(§2) Each test sample was dissolved in 25 mL of methanol, followed by a 2-fold dilution with a mobile phase and filtration through a 0.45-um filter, thereby preparing analysis samples.
Mobile phase; acetonitrile: 0.5% (v/v) aqueous formic acid solution=50:50

[2] = Compatibility of rosuvastatin and coating material: related compounds on storage under severe conditions (HPLC); details: rosuvastatin 0.5 mg with coating material 2.5 mg, vacuum-dried, stored at about 60° C., relative humidity about 85%
Method: To form a rosuvastatin-containing drug-coating layer, compatibility of rosuvastatin with various coating materials (coating agents and surfactants) were evaluated. About 2.5 mg of each coating material as shown in Table 1 was dissolved in 5 mL of a 75% aqueous ethanol solution, and about 0.5 mg of rosuvastatin was added thereto and then completely dissolved. About 0.5 mg of rosuvastatin alone was completely dissolved in 5 mL of a 75% aqueous ethanol solution as a control group for the compatibility evaluation. Each of the resulting solutions was vacuum-dried at about 50° C. for about 24 hours to completely remove the solvent, thereby preparing a test sample. While each test temple was stored under severe conditions (at a temperature of about 60° C. and a relative humidity of about 85%), a degree of generation of related compounds with time was observed. The related compounds were analyzed by high-performance liquid chromatography (HPLC) in the following manner.
<Rosuvastatin Analysis Method>
The test sample was dissolved in 25 mL of methanol, followed by a 2-fold dilution with a mobile phase and filtration through a 0.45-um filter, thereby preparing an analysis sample.
Mobile phase; Acetonitrile: 0.5% (v/v) aqueous formic acid solution=50:50

[3] = Compatibility of pitavastatin and coating material: related compounds on storage under severe conditions (HPLC); details: pitavastatin 0.5 mg with coating material 2.5 mg, vacuum-dried, stored at about 60° C., relative humidity about 85%
Method: as §1, with “To form a pitavastatin-containing drug-coating layer,” for “To form an atorvastatin-containing drug-coating layer,”, “compatibility of pitavastatin with various” for “compatibility of atorvastatin with various”, “in Table 3 was dissolved” for “in Table 2 was dissolved”, “mg of pitavastatin was added” for “mg of atorvastatin was added”, “mg of pitavastatin alone was completely” for “mg of atorvastatin was completely”, “degree of generated related compounds” for “degree of generation of related compounds”
<Pitavastatin Analysis Method>
as §2
Mobile phase; acetonitrile: 0.1% (v/v) aqueous trifluoroacetic acid (TFA) solution=60:40

For `CC(C)c1c(C(=O)Nc2ccccc2)c(-c2ccccc2)c(-c2ccc(F)cc2)n1CC[C@@H](O)C[C@@H](O)CC(=O)O` [Atorvastatin], the “Related compound (%, 1st week)” value [1] was 0.3%, the “Related compound (%, 1st week)” value ([1]; listed as atorvastatin) was “About 0.3%” and the “Related compound (%, 3rd week)” value [1] was 3.3%. The “Related compound (%, 3rd week)” value ([1]; listed as atorvastatin) was “about 3.3%”.

In the case of `CC(C)c1nc(N(C)S(C)(=O)=O)nc(-c2ccc(F)cc2)c1/C=C/[C@@H](O)C[C@@H](O)CC(=O)O` [Rosuvastatin], the “Related compound (%, 1st week)” value [2] is reported as 1.4%, the “Related compound (%, 1st week)” value ([2]; listed as rosuvastatin) is reported as “About 1.4%” and the “Related compound (%, 3rd week)” value [2] is reported as 5.2%. The “Related compound (%, 3rd week)” value ([2]; listed as rosuvastatin) was “about 5.4%”.

With `O=C(O)C[C@H](O)C[C@H](O)/C=C/c1c(C2CC2)nc2ccccc2c1-c1ccc(F)cc1` [Pitavastatin] the “Related compound (%, 1st week)” value [3] was 0.1%, the “Related compound (%, 1st week)” value ([3]; listed as pitavastatin) was “About 0.1%” and the “Related compound (%, 3rd week)” value [3] was 0.2%. The “Related compound (%, 3rd week)” value ([3]; listed as pitavastatin) was “about 0.2%”.
